The source of these data is BigSolDB 2.1.

Structures are written as SMILES.

On to `O=c1c(O)c(-c2ccc(O)cc2)oc2cc(O)cc(O)c12`, for which the solubility (mole fraction) (commonly the moles of solute divided by all moles in the saturated solution) is, setting by setting: (in n-octanol, 298.15 K) 0.00857; (in n-octanol, 303.15 K) 0.00895; (in n-octanol, 308.15 K) 0.00965; (in n-octanol, 313.15 K) 0.0103; (in n-octanol, 318.15 K) 0.0118; (in water, 298.15 K) 4.59e-10. Also, the solubility (mole fraction) (in water, 303.15 K) amounted to 1.17e-09; the solubility (mole fraction) (in water, 308.15 K) was determined as 2.31e-09; the solubility (mole fraction) (in water, 313.15 K) came to 4.48e-09; the solubility (mole fraction) (in water, 318.15 K) amounted to 7.65e-09.
Turning to `COc1ccc(-c2coc3cc(O)ccc3c2=O)cc1`, the solubility (mole fraction) by setting is: (in n-octanol, 298.15 K) 0.00056; (in n-octanol, 303.15 K) 0.0006; (in n-octanol, 308.15 K) 0.00065; (in n-octanol, 313.15 K) 0.00069; (in n-octanol, 318.15 K) 0.00075; (in water, 298.15 K) 7.85e-10. The solubility (mole fraction) by setting is: (in water, 303.15 K) 3.51e-09; (in water, 308.15 K) 6.78e-09; (in water, 313.15 K) 1.08e-08; (in water, 318.15 K) 1.5e-08.
For the compound `O=c1cc(-c2ccc(O)c(O)c2)oc2cc(O)cc(O)c12`, the solubility (mole fraction) runs as follows: (in n-octanol, 298.15 K) 0.0002; (in n-octanol, 303.15 K) 0.00021; (in n-octanol, 308.15 K) 0.00023; (in n-octanol, 313.15 K) 0.00025; (in n-octanol, 318.15 K) 0.00027; (in water, 298.15 K) 4.54e-08. Also, the solubility (mole fraction) came out at 6.74e-08 (in water, 303.15 K); 1.2e-07 (in water, 308.15 K); 1.91e-07 (in water, 313.15 K); 3.74e-07 (in water, 318.15 K).
With `O=c1c(O)c(-c2ccc(O)cc2O)oc2cc(O)cc(O)c12`, the solubility (mole fraction) runs as follows: (in n-octanol, 298.15 K) 0.00226; (in n-octanol, 303.15 K) 0.00235; (in n-octanol, 308.15 K) 0.00251; (in n-octanol, 313.15 K) 0.00265; (in n-octanol, 318.15 K) 0.00288; (in water, 298.15 K) 6.19e-09. Besides, the solubility (mole fraction) is, setting by setting: (in water, 303.15 K) 2.24e-08; (in water, 308.15 K) 3.25e-08; (in water, 313.15 K) 4.57e-08; (in water, 318.15 K) 9.53e-08.
Regarding `O=c1cc(-c2ccc(O)cc2)oc2cc(O)cc(O)c12`, the solubility (mole fraction) reads like this: (in n-octanol, 298.15 K) 0.00077; (in n-octanol, 303.15 K) 0.0008; (in n-octanol, 308.15 K) 0.00084; (in n-octanol, 313.15 K) 0.00094; (in n-octanol, 318.15 K) 0.00102; (in water, 298.15 K) 7.47e-09. Besides, the solubility (mole fraction) reads like this: (in water, 303.15 K) 1.73e-08; (in water, 308.15 K) 2.96e-08; (in water, 313.15 K) 5.87e-08; (in water, 318.15 K) 1.03e-07.
Turning to `O=C1C[C@@H](c2ccc(O)cc2)Oc2cc(O)cc(O)c21`, the solubility (mole fraction) reads like this: (in n-octanol, 298.15 K) 0.00903; (in n-octanol, 303.15 K) 0.00963; (in n-octanol, 308.15 K) 0.0103; (in n-octanol, 313.15 K) 0.0109; (in n-octanol, 318.15 K) 0.0114; (in water, 298.15 K) 1.79e-07. For the same compound, the solubility (mole fraction) was found to be 2.98e-07 (in water, 303.15 K); 4.96e-07 (in water, 308.15 K); 7.64e-07 (in water, 313.15 K); 1.1e-06 (in water, 318.15 K).
Regarding `O=c1c(O)c(-c2ccc(O)c(O)c2)oc2cc(O)cc(O)c12`, the solubility (mole fraction) runs as follows: (in n-octanol, 298.15 K) 0.00526; (in n-octanol, 303.15 K) 0.00608; (in n-octanol, 308.15 K) 0.00677; (in n-octanol, 313.15 K) 0.00747; (in n-octanol, 318.15 K) 0.00823; (in water, 298.15 K) 5.29e-09. For the same compound, the solubility (mole fraction) is 1.02e-08 (in water, 303.15 K); 1.61e-08 (in water, 308.15 K); 2.34e-08 (in water, 313.15 K); 3.78e-08 (in water, 318.15 K).
Turning to `O=C1c2c(O)cc(O)cc2OC(c2ccc(O)c(O)c2)C1O` (stereo not given), the solubility (mole fraction) was 0.0127 (in n-octanol, 298.15 K); 0.0141 (in n-octanol, 303.15 K); 0.0157 (in n-octanol, 308.15 K); 0.0176 (in n-octanol, 313.15 K); 0.0196 (in n-octanol, 318.15 K); 2.55e-05 (in water, 298.15 K). The solubility (mole fraction) stood at 3.18e-05 (in water, 303.15 K); 4.5e-05 (in water, 308.15 K); 6.88e-05 (in water, 313.15 K); 8.05e-05 (in water, 318.15 K).
For `O=c1cc(-c2ccccc2)oc2cc(O)cc(O)c12`, the solubility (mole fraction) (in n-octanol, 298.15 K) is 0.00208; the solubility (mole fraction) (in n-octanol, 303.15 K) amounted to 0.00218; the solubility (mole fraction) (in n-octanol, 308.15 K) is 0.00228; the solubility (mole fraction) (in n-octanol, 313.15 K) was 0.00234; the solubility (mole fraction) (in n-octanol, 318.15 K) came to 0.00247; the solubility (mole fraction) (in water, 298.15 K) amounted to 5.95e-10. Besides, the solubility (mole fraction) reads like this: (in water, 303.15 K) 1.24e-09; (in water, 308.15 K) 3.63e-09; (in water, 313.15 K) 1e-08; (in water, 318.15 K) 1.88e-08.
Take `COc1ccc(C2CC(=O)c3c(O)cc(O)cc3O2)cc1O` (stereo not given): the solubility (mole fraction) is, setting by setting: (in n-octanol, 298.15 K) 0.00269; (in n-octanol, 303.15 K) 0.00299; (in n-octanol, 308.15 K) 0.0033; (in n-octanol, 313.15 K) 0.00379; (in n-octanol, 318.15 K) 0.0042; (in water, 298.15 K) 5.51e-08. Besides, the solubility (mole fraction) reads like this: (in water, 303.15 K) 1.35e-07; (in water, 308.15 K) 2.52e-07; (in water, 313.15 K) 4.66e-07; (in water, 318.15 K) 7.9e-07.
